Measured values taken from patent US7371734B2, “Oligonucleotide compositions and their use for the modulation of immune responses” (Bioniche Life Sciences Inc., priority 2002, dated 2008).
Marks after values point to notes of the source that are not given here.

How the values were obtained:
Human dendritic cells [1] = test: CD86 levels at the DC cell surface (flow cytometry); assay type: cell-based; conditions: 100 μg, 48 hours
Procedure, shortened: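 Human DCs (from donors B and C) at 1.0×10^5 cells/ml were exposed 48 h to 100 μg of 6-base polynucleotides. Surface CD86 was measured by flow cytometry with a PE-conjugated anti-CD86 mAb. Values are % CD86^hi DC after treatment.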

female BALB/C mice = test: Vaccination with hepatitis surface antigen (intramuscular), anti-HbsAg end-point dilution ELISA; assay type: in vivo
Method: Immunization with recombinant hepatitis B surface antigen (HbsAg; Cortex Biochemical, San Leandro, Calif., USA) combined with aluminum hydroxide (Alum; SuperFos Biosector, Vedback, Denmark) and/or with N3A, N6A or N6B polynucleotides, was conducted on 6-8 week old female BALB/C mice (Charles River, St-Constant, Qc, Canada). Each mouse (5 mice per group) received a single intramuscular injection into the tibialis muscle of a solution containing: Saline (Group 1), HbsAg 1 μg (Group 2), HbsAg 1 μg+Alum 10 μg (Group 3), HbsAg 1 μg+Alum 10 μg+N3A 10 μg (Group 4), HbsAg 1 μg+Alum 10 μg+N3A 100 μg (Group 5), HbsAg 1 μg+Alum 10 μg+N3B10 μg (Group 6), HbsAg 1 μg+Alum 10 μg+N3B100 μg (Group 7), HbsAg 1 μg+Alum 10 μg+N6A 10 μg (Group 8), HbsAg 1 μg+Alum 10 μg+N6A 100 μg (Group 9), HbsAg 1 μg+Alum 10 μg+N6B 10 μg (Group 10) and HbsAg 1 μg+Alum 10 μg+N6B 100 μg (Group 11) in a total volume of 50 μl at day 0 and day 21. Plasma was recovered at day 31.
Antibodies specific to HbsAg were detected and quantified by end-point dilution assay ELISA. Briefly, a solid phase of HbsAg protein (0.1 μg per well, overnight at 4° C.) was used to capture anti-HbsAg in the plasma (1 hour at 37° C.), which were then detected with horseradish peroxidase-conjugated goat anti-mouse IgG (total), IgG1 and IgG2a following the instructions of the manufacturer (Clonetyping system, Southern Biotechnology Inc., Birmingham, Ala., USA). […] Data are expressed in Table 13 as the mean±SD of 5 mice per group.

Human dendritic cells [2] = test: CD80 levels at the DC cell surface (flow cytometry); assay type: cell-based; conditions: 100 μg, 48 hours
Procedure, shortened: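 Human dendritic cells from two donors, at 1.0×10^5 cells/ml, were exposed 48 h to 100 μg of 6-base polynucleotides. Surface CD80 was measured by flow cytometry with a FITC anti-CD80 antibody. Values are % CD80^hi DC.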

Human dendritic cells [3] = test: CD40 levels at the DC cell surface (flow cytometry); assay type: cell-based; conditions: 100 μg, 48 hours
Procedure, shortened: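 DCs from two donors, seeded at 1.0×10^5 cells/ml, were exposed for 48 h to 100 μg of 6-base polynucleotides. Surface CD40 was then measured by flow cytometry with a FITC anti-CD40 mAb. Values are the percentage of CD40^hi DC, meaning above-baseline CD40 expression.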

Human dendritic cells [4] = test: Induction of IL-1beta production by DC (ELISA); assay type: cell-based; conditions: 100 μg, 48 hours
Procedure, shortened: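 Cells from three donors, seeded at 1.0×10^5 cells/ml, were exposed for 48 hours to 100 μg of 6-base polynucleotides. IL-1beta in culture supernatant measured by ELISA; values are fold increase over untreated control cells.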

Human dendritic cells [5] = test: Induction of IL-12 production by DC (ELISA); assay type: cell-based; conditions: 100 μg, 48 hours
Procedure, shortened: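 Human DCs from three donors, 1.0×10^5 cells/ml, exposed 48 h to 100 μg of 6-base polynucleotides. IL-12 in culture supernatant measured by ELISA. Values given as fold increase over untreated control cells.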

Human dendritic cells [6] = test: MHC-II levels at the DC cell surface (flow cytometry); assay type: cell-based; conditions: DC from individual B; 100 μg, 48 hours
Procedure, shortened: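 Dendritic cells from one donor were seeded at 1.0×10^5 cells/ml and treated for 48 h with 100 μg of 6-base polynucleotides. Surface MHC II was then measured by flow cytometry with a FITC-conjugated anti-MHC II antibody. Values are the percentage of MHC II^hi DC.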

[7] = HbsAg 1 μg + Alum 10 μg + polynucleotide 10 μg i.m. day 0 and 21, plasma day 31
[8] = HbsAg 1 μg + Alum 10 μg + polynucleotide 100 μg i.m. day 0 and 21, plasma day 31

Substance	The percentage of CD86^hi DC following treatment (Human dendritic cells [1]; DC from individual B)	The percentage of CD86^hi DC following treatment (Human dendritic cells [1]; DC from individual C)	End-point titers IgG1, mean ± SD (female BALB/C mice; [7])	End-point titers IgG2a, mean ± SD (female BALB/C mice; [7])	End-point titers IgG total, mean ± SD (female BALB/C mice; [7])	End-point titers IgG1, mean ± SD (female BALB/C mice; [8])	End-point titers IgG2a, mean ± SD (female BALB/C mice; [8])	End-point titers IgG total, mean ± SD (female BALB/C mice; [8])	The percentage of CD80^hi DC following treatment (Human dendritic cells [2]; DC from individual B) [%]	The percentage of CD80^hi DC following treatment (Human dendritic cells [2]; DC from individual C) [%]	The percentage of CD40^hi DC following treatment (Human dendritic cells [3]; DC from individual B)	The percentage of CD40^hi DC following treatment (Human dendritic cells [3]; DC from individual C) [%]	IL-1beta production by DC (fold increase compared to untreated DC) (Human dendritic cells [4]; DC isolated from individual A) [fold]	IL-1beta production by DC (fold increase compared to untreated DC) (Human dendritic cells [4]; DC isolated from individual B) [fold]	IL-1beta production by DC (fold increase compared to untreated DC) (Human dendritic cells [4]; DC isolated from individual C) [fold]	IL-12 production by DC (fold increase compared to untreated DC) (Human dendritic cells [5]; DC isolated from individual A) [fold]	IL-12 production by DC (fold increase compared to untreated DC) (Human dendritic cells [5]; DC isolated from individual B) [fold]	IL-12 production by DC (fold increase compared to untreated DC) (Human dendritic cells [5]; DC isolated from individual C) [fold]	The percentage of MHC-II^hi DC following treatment (Human dendritic cells [6]) [%]
5′GGGAGG3′ [N6A] (unmodified DNA)	24** %	18%	2010 ± 2187	250 ± 257	439 ± 705	6420 ± 2528	291 ± 154	1185 ± 607	15	17	35** %	15	1.0	1.1	0.9	1.0	1.0	1.0	25
5′GGGAGG3′ [N6B] (DNA, backbone not given here; further chemistry not fully specified)	15%	33%	2880 ± 1126	187 ± 46	551 ± 309	3560 ± 1210	205 ± 76	660 ± 364	4	4	28** %	15	1.0	1.1	1.0	1.3	1.4	4.1	27
5′GGGTGG3′ [N3A]	16%	37** %	9300 ± 3365	272 ± 255	849 ± 386	13320 ± 12993	860 ± 719	1985 ± 1748	12	18	36** %	20	1.1	1.1	1.0	1.0	1.0	1.0	23
5′GGGTGG3′ [N3B]	30** %	39** %	3460 ± 1680	120 ± 26	287 ± 142	4460 ± 1884	204 ± 129	437 ± 305	5	3	33** %	14	1.7	4.4	2.1	5.2	17.3	14.4	25
